In data set [1] the target is Epidermal growth factor receptor (Homo sapiens, UniProt P00533, C797S/EX18DEL/T790M). Kind of data set: Inhibition of EGFR del18/T790M/C797S triple mutant (unknown origin) using TK as substrate incubated for 120 mins in the presence of ATP by HTRF assay.
For data set [2], the target named is Epidermal growth factor receptor (Homo sapiens, UniProt P00533, C797S/L858R/T790M). As to the kind of experiment: Inhibition of EGFR L858R/T790M/C797S triple mutant (unknown origin) using TK as substrate incubated for 120 mins in the presence of ATP by HTRF assay. On the technique in general: Time-resolved FRET reads energy transfer from a long-lived donor to a nearby acceptor.

The next data set concerns BaF3. Kind of data set: Antiproliferative activity against mouse BaF3 cells harboring del18/T790M/C797S triple mutant assessed as cell growth inhibition incubated for 72 hrs by cell titre glo luminescence assay. It is filed as functional, cell-based. The following applies: BaF3, 72 h.
Data set [3] deals with Epidermal growth factor receptor (Homo sapiens), P00533 [UNDEFINED MUTATION]. Kind of data set: Potency index, ratio of brigatinib IC50 to test compound IC50 for inhibition of EGFR del18/T790M/C797S triple mutant (unknown origin) using TK as substrate incubated for 120 mins in the presence of ATP by HTRF assay.
Data set [4] relates to Epidermal growth factor receptor (Homo sapiens), P00533 [L858R,T790M,C797S]. Kind of data set: Potency index, ratio of brigatinib IC50 to test compound IC50 for inhibition of EGFR L858R/T790M/C797S triple mutant (unknown origin) using TK as substrate incubated for 120 mins in the presence of ATP by HTRF assay.
Data set [5] in a line: Cmax in mouse at 5 mg/kg measured upto 24 hrs by LC-MS/MS analysis. It is filed as ADME, organism-based. Also on record: time < 24 hrs, dose 5 mg/kg. The following applies: in vivo.
Data set [6] is described as follows: AUC(0 to infinity) in mouse at 5 mg/kg measured upto 24 hrs by LC-MS/MS analysis. Also on record: dose 5 mg/kg, time < 24 hrs. The following applies: in vivo. It is filed as ADME, organism-based.
Data set [7] can be described thus: Half-life in mouse at 5 mg/kg measured upto 24 hrs by LC-MS/MS analysis. The settings on record: in vivo. The format is ADME, organism-based.
Data set [8] can be described thus: MRT in mouse at 5 mg/kg measured upto 24 hrs by LC-MS/MS analysis. It is filed as ADME, organism-based. The settings on record: in vivo.
Data set [9] in a line: AUC(0 to t) in mouse at 5 mg/kg measured upto 24 hrs by LC-MS/MS analysis. It is filed as ADME, organism-based. Further details: time < 24 hrs, dose 5 mg/kg. The settings on record: in vivo.

As a reminder, the IC50 is the concentration at which inhibition is half-maximal. For `CCc1cc(Nc2ncc(Br)c(Nc3ccc4nccnc4c3P(C)(C)=O)n2)c(OC)cc1N1CCC(N2CC(N(C)C)C2)CC1`, the figures for the IC50 (in [1]; in data set [2]; in the data set on BaF3) were 0.11 nM, 0.08 nM and 16 nM, respectively. For the same molecule, the Ratio IC50 in [3] came to 7; in data set [4], 40.
For orientation: Cmax means the highest concentration seen after dosing. What is called AUC(0-inf) is the area under the concentration-time curve extrapolated to infinity. Lower therefore signals low exposure. One may read the half-life as the time in which the quantity being followed falls by half. Read a high half-life as slow loss. Usually MRT stands for the average time that molecules of a dose stay in the body. As a reminder, the AUC(0-t) is exposure summed from dosing to a finite time, without extrapolation to infinity. Regarding `CCc1cc(Nc2ncc(Br)c(Nc3ccc4c(c3P(C)(C)=O)OCO4)n2)c(OC)cc1N1CCC(N2CC(N(C)C)C2)CC1`, the peak concentration (Cmax) in data set [5] was 1470 ng/mL. Also, the 50% inhibitory concentration (IC50) in data set [1] was 0.4 nM; in [2] it was 0.15 nM; in the data set with BaF3, 14 nM. In data set [6], this molecule returned a total exposure AUC(0-inf) of 12500 ng·h/mL. Further, in data set [7], the half-life was 4.2 h. The MRT in data set [8] worked out at 6 h. In [9], this molecule displayed an AUC(0-t) at 24 h of 12300 ng·h/mL.
In turn, `CCOC1CN(C2CCN(c3cc(OC)c(Nc4ncc(Br)c(Nc5ccc6c(c5P(C)(C)=O)OCCO6)n4)cc3C)CC2)C1` displayed a maximum concentration (Cmax) in data set [5] of 2030 ng/mL. This molecule also gave a total exposure AUC(0-inf) in [6] of 25300 ng·h/mL. The molecule further had a half-life in data set [7] of 3.2 h. For the same molecule, in the data set with BaF3, the IC50 is 32 nM. The MRT in [8] stood at 6.1 h. For the same molecule, in [9], the area under the curve AUC(0-t) at 24 h was 25200 ng·h/mL.
Consider `CCc1cc(Nc2ncc(Br)c(Nc3ccc4c(c3P(C)(C)=O)OCCO4)n2)c(OC)cc1N1CCC(N2CC(N(C)C)C2)CC1`, for which the highest concentration (Cmax) in [5] was determined as 2110 ng/mL. Besides, the results for the 50% inhibitory concentration (IC50) (in data set [1]; in data set [2]; in the data set with BaF3) were 0.08 nM, 0.08 nM and 8 nM, respectively. This molecule also yielded an AUC(0-inf) in data set [6] of 21400 ng·h/mL. Besides, the half-life in data set [7] was 4 h. In data set [8], this molecule registered an MRT of 6.3 h. The molecule also returned an area under the curve AUC(0-t) at 24 h in data set [9] of 21000 ng·h/mL.

The values above are taken from ChEMBL document CHEMBL5113487, “Novel anilinopyrimidine derivatives as potential EGFRT790M/C797S Inhibitors: Design, Synthesis, biological activity study” (Bioorg Med Chem, 2022).
